Test results reported in paper PMC8851282, “Senolysis induced by 25-hydroxycholesterol targets CRYAB in multiple cell types” (iScience, 2022).

Key:
[1] = tested on: human lung fibroblasts (IMR-90); experiment: Cell viability assay of NS and SEN IMR-90 cells treated with CRYAB and HMOX1 inhibitors; format: cell-based; details: 250 nM Doxo-induced senescence; viability after 72 h; 25HC at 10 or 50 μM
Experimental: The average value of DMSO was set at 1. (B and D) Effects of CRYAB and HMOX1 inhibitors on DMSO-treated NS or Doxo-treated SEN cells; (B) mDFs, (D) IMR-90s. Cells were treated with the inhibitors at the indicated concentrations. Cell viability was measured after 72 h. (C) IMR-90 qRT-PCR. For qPCR: mean +/- SE, n =4, ∗p< 0.05, ∗∗p< 0.01, ∗∗∗p<0.001, ∗∗∗∗p<0.0001 by Dunnett’s multiple comparisons test vs DMSO. For cell viability assays: mean +/- SE, n =3, ∗∗p< 0.01, ∗∗∗p<0.001, ∗∗∗∗p<0.0001 vs 0 mM by student’s t test.
All experiments were performed in incubators at 37 °C, 3% O2 and 5% CO2. Senescence was induced by treatment with either Doxo (250 nM for 24 h) ([Demaria et al., 2017]) or X-irradiation (10 Gy) ([Limbad et al., 2020]). For cell culture studies using 25HC, it was used at the indicated concentrations in the media.
IMR-90 cells were cultured in DMEM with 10% FBS. […]
Cell viability was assessed using a cell counting kit-8 from Dojindo Molecular Technologies, Inc (Cat CK04-20). […] The supernatant was transferred to a new 96-well plate and absorbance read at 450 nm as recommended in the product datasheet.

15-d-PGJ2 [2] = experiment: 15-d-PGJ2 ELISA in urine of Doxo-treated mice given 25HC; format: in vivo, mouse; details: urine collected after the first treatment with 25HC 50 mg/kg i.p. (24 h per Figure 8, 12 hr per methods)
Experimental: Figure 8 25HC induces senolysis in vivo in Doxo-treated mice (A) Timeline of 25HC treatment in Doxo-treated mice. Mice were given 4 mg/kg Doxo or PBS for 5 daily injections[A1], then injected with 25HC or vehicle for 7 consecutive days. (B) Mass of gastrocnemius muscles. Muscle weight was normalized to body weight. (C) Cdkn2a and Cryab mRNA levels in gastrocnemius (Gastroc) and soleus (Sol) muscles. RNA was collected 28–30 d after the first treatment with Doxo. mRNA levels were quantified by qRT-PCR, and normalized to actin mRNA levels. The average value of PBS-vehicle was set at 1. (D) 15-d-PGJ2 analysis in urine. […]
Male C57BL/6J mice (3–4 months old) were purchased from the Jackson Laboratory. […] Senescence markers p16^INK4a, p21^Cip1 and CRYAB expression was analyzed on gastrocnemius (Gastroc), soleus (So), tibialis anterior (TA), visceral fat (VF), kidney (Ki), liver (Li), lung (Lu), heart (He), and skin (Sk) samples by qRT-PCR.
(§1) Urine was collected at 12 or 24 h after the first treatment with 25HC or vehicle and diluted 10-fold with assay buffer. The amount of 15-d-PGJ2 was measured using a 15-deoxy-Δ^12,14-PGJ2 ELISA kit according to manufactures’ protocol (Enzo Life Sciences).

15-d-PGJ2 [3] = experiment: 15-d-PGJ2 ELISA in urine of aged mice given 25HC; format: in vivo, mouse; details: 24–26-month-old mice, both genders; urine 12 h after the first treatment with 25HC 50 mg/kg i.p., relative to controls
Experimental: Figure 9 25HC is an in vivo senolytic in tissues of aged mice (A) Timeline of 25HC treatment in aged mice. Young (5 months old) and old (24–26 months old) mice were treated with 25HC or vehicle for 5 consecutive days. (B) Mass of gastrocnemius muscles in male and female mice. Muscle weight was normalized to body weight. (C) Cdkn1a and Cryab mRNA levels in gastrocnemius (Gastroc) and soleus (Sol) muscles. RNA was collected at 7–9 d after the first treatment with 25HC or vehicle. mRNA levels of the indicated genes were quantified by qRT-PCR, and normalized to those of actin mRNA. The average value of young-vehicle was set at 1. (D) 15-d-PGJ2 analysis in urine. […]
Two groups of male and female C57BL/6J mice were used. […] Senescence markers and CRYAB were analyzed using mRNA from gastrocnemius (Gastroc), soleus (So), tibialis anterior (TA), visceral fat (VF), kidney (Ki), liver (Li), lung (Lu), heart (He), and skin (Sk) samples using qRT-PCR (Figures S14, S15, S16, S17, and S18).
as §1

With `C[C@H](CCCC(C)(C)O)[C@H]1CC[C@H]2[C@@H]3CC=C4C[C@@H](O)CC[C@]4(C)[C@H]3CC[C@]12C` [25HC, 25-hydroxycholesterol] the “senolysis in IMR-90 cells” value [1] was “induced significant senolysis”, the “15-d-PGJ2 levels in urine” value (15-d-PGJ2 [2]) was “increased significantly” and the “15-d-PGJ2 level in urine” value (15-d-PGJ2 [3]) was “greater”.
